Data taken from patent US20230265151A1, “GIP/GLP1 CO-AGONIST COMPOUNDS” (priority 2020, published 2023).
Where two headings read alike, the source gives them in different places. *1 amine or outer side, *2 acyl side, *3 side chain or, on linkers, in order; H or OH if unused. Where a SMILES comes first, the peptide text is derived from it. Side-chain parts run from the residue outwards. [ ]: non-standard residue; d: D form. The star is where a group is joined. Decanoyl(10-(4-HOOC-PhO)) = O=C(O)c1ccc(OCCCCCCCCCC(=O)*)cc1; αMePhe(2-F) = C[C@](N)(Cc1ccccc1F)C(=O)O; γGlu = O=C(O)[C@H](CCC(=O)[*:2])N[*:1]; αMeY = C[C@](N)(Cc1ccc(O)cc1)C(=O)O; αMeL = CC(C)C[C@](C)(N)C(=O)O; Orn = NCCC[C@H](N)C(=O)O; AEEA = NCCOCCOCC(=O)O; Aib = CC(C)(N)C(=O)O

Tests used:
Assay type in all cases: cell-based
hGCGR = target: T1, hGCGR (Homo sapiens, UniProt P47871); assay: Functional cAMP formation (HTRF) in HEK-293 clonal cells expressing hGCGR, 0.1% bovine casein, without or with 1.0% human serum albumin
T1 construct: expressed in transfected cells
T1 sequence (P47871 26-477): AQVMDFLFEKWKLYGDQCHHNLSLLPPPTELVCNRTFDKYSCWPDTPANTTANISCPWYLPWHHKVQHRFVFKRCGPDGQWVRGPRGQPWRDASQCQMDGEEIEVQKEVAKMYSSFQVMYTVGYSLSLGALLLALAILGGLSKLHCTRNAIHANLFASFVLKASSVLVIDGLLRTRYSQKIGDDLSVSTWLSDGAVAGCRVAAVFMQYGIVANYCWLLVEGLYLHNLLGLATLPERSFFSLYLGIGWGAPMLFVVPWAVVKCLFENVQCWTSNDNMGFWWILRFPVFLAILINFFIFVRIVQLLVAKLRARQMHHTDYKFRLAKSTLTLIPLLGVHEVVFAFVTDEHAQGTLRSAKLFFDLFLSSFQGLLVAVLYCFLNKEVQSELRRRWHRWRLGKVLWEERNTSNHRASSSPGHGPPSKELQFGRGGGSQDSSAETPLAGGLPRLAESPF
Method in brief: (§1)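 Cells were stimulated with peptide for 30 min at 37° C, then intracellular cAMP was measured by competitive HTRF (665/620 nm ratio) and converted to nM using a cAMP standard curve. Relative EC50 and Emax came from four-parameter logistic fits of percent maximal response against peptide concentration.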

hGIPR = target: T2, hGIPR (Homo sapiens, UniProt P48546); assay: Functional cAMP formation (HTRF) in HEK-293 clonal cells expressing hGIPR, 0.1% bovine casein, without or with 1.0% human serum albumin; conditions: for Emax: percent of maximal response to GIP(1-42)NH2; for EC50: hGIPR EC50, nM (SEM, n), cAMP, 0.1% bovine casein (no human serum albumin), geometric mean
T2 construct: expressed in transfected cells
T2 sequence (P48546 22-466): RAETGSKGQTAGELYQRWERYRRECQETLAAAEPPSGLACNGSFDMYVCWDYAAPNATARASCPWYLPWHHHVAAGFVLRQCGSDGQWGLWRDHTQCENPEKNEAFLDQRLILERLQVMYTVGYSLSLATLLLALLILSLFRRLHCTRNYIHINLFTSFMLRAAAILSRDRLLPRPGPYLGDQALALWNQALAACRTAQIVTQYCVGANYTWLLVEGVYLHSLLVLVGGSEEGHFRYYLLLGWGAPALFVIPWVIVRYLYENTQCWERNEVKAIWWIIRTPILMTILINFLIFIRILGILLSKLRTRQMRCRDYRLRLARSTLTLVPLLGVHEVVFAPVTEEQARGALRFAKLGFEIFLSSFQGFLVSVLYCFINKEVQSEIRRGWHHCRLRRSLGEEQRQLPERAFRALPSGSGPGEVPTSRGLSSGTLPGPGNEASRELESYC
Method in brief: as §1

hGLP-1R = hGLP-1R (Homo sapiens, UniProt P43220); assay: Functional cAMP formation (HTRF) in HEK-293 clonal cells expressing hGLP-1R, 0.1% bovine casein, without or with 1.0% human serum albumin; parameters: expressed in transfected cells; conditions: for EC50: geometric mean
Sequence of hGLP-1R (P43220 24-463): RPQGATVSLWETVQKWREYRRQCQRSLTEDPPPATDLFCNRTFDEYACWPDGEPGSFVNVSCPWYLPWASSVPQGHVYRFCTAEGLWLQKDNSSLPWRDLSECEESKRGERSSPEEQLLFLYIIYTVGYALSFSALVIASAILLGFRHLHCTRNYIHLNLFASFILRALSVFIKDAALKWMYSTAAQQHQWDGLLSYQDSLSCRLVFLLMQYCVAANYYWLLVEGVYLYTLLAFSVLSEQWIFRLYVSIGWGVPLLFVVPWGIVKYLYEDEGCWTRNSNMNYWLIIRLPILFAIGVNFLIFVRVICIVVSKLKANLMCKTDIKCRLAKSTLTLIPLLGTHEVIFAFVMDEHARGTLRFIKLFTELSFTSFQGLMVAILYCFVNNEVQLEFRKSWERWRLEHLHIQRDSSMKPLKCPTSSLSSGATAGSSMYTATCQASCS
Method in brief: as §1

[1] = 0.1% bovine casein and 1.0% human serum albumin, 37° C., geometric mean, read-out: hGCGR EC50, nM (SEM, n)
[2] = HEK293, 0.1% bovine casein and 1.0% human serum albumin, 37° C., read-out: hGIPR Emax, % ± SEM
[3] = HEK293, 0.1% bovine casein and 1.0% human serum albumin, 37° C., percent of maximal response to GLP-1(7-36)NH2, read-out: hGLP-1R Emax, % ± SEM
[4] = hGCGR EC50, nM (SEM, n), cAMP, 37° C., 0.1% bovine casein (no human serum albumin), geometric mean
[5] = hGLP-1R EC50, nM (SEM, n), cAMP, 37° C., 0.1% bovine casein (no human serum albumin)

Question: CC[C@H](C)[C@H](NC(=O)[C@H](CCCN)NC(=O)[C@H](CC(=O)O)NC(=O)[C@H](CC(C)C)NC(=O)[C@](C)(CC(C)C)NC(=O)[C@@H](NC(=O)[C@H](CO)NC(=O)[C@H](Cc1ccncc1)NC(=O)[C@H](CC(=O)O)NC(=O)[C@H](CO)NC(=O)[C@@H](NC(=O)[C@](C)(Cc1ccccc1F)NC(=O)[C@@H](NC(=O)CNC(=O)[C@H](CCC(=O)O)NC(=O)C(C)(C)NC(=O)[C@@H](N)Cc1ccc(O)cc1)[C@@H](C)O)[C@@H](C)O)[C@@H](C)CC)C(=O)N[C@@H](C)C(=O)N[C@@H](CCC(N)=O)C(=O)NC(C)(C)C(=O)N[C@@H](CCC(=O)O)C(=O)N[C@@H](Cc1ccccc1)C(=O)N[C@H](C(=O)N[C@@H](CCCCNC(=O)COCCOCCNC(=O)COCCOCCNC(=O)CC[C@H](NC(=O)CCCc1ccc(C(C)(C)C)cc1)C(=O)O)C(=O)N[C@@](C)(Cc1ccc(O)cc1)C(=O)N[C@@H](CC(C)C)C(=O)N[C@H](C(=O)N[C@@H](CCCCNC(=O)COCCOCCNC(=O)COCCOCCNC(=O)CC[C@H](NC(=O)CCCc1ccc(C(C)(C)C)cc1)C(=O)O)C(=O)NCC(=O)NCC(=O)N1CCC[C@H]1C(=O)N[C@@H](CO)C(=O)N[C@@H](CO)C(=O)NCC(=O)N[C@@H](C)C(=O)N1CCC[C@H]1C(=O)N1CCC[C@H]1C(=O)N1CCC[C@H]1C(=O)N[C@@H](CO)C(N)=O)[C@@H](C)CC)[C@@H](C)CC [Example 203] was tested. Which EC50 (hGCGR; [1]) did it give?
Answer: > 9950 nM

Question: And the EC50 (hGCGR; cAMP, incubated at 37° C., 0.1% bovine casein (no human serum albumin), geometric mean, read-out: hGCGR EC50, nM (SEM, n))?
Answer: > 9950 nM

Question: What about the Emax (hGIPR; [2]) of the same compound?
Answer: 87.2%

Question: What about the EC50 (hGLP-1R; 0.1% bovine casein and 1.0% human serum albumin, 37° C., read-out: hGLP-1R EC50, nM (SEM, n)) of the same compound?
Answer: 3.38 nM

Question: And the Emax (hGLP-1R; [3])?
Answer: 105%

Question: What about the Emax (hGLP-1R; HEK293, percent of maximal response to GLP-1(7-36)NH2, 37° C., 0.1% bovine casein, arithmetic mean, read-out: hGLP-1R Emax, % ± SEM) of the same compound?
Answer: 119%

Question: What about the EC50 (hGLP-1R; cAMP, incubated at 37° C., 0.1% bovine casein (no human serum albumin), read-out: hGLP-1R EC50, nM (SEM, n)) of the same compound?
Answer: 0.535 nM

Question: Which results are given for CC[C@H](C)[C@H](NC(=O)[C@H](CCCN)NC(=O)[C@H](CC(=O)O)NC(=O)[C@H](CC(C)C)NC(=O)[C@](C)(CC(C)C)NC(=O)[C@@H](NC(=O)[C@H](CO)NC(=O)[C@H](Cc1ccc2ccccc2c1)NC(=O)[C@H](CC(=O)O)NC(=O)[C@H](CO)NC(=O)[C@@H](NC(=O)[C@](C)(Cc1ccccc1F)NC(=O)[C@@H](NC(=O)CNC(=O)[C@H](CCC(=O)O)NC(=O)C(C)(C)NC(=O)[C@@H](N)Cc1ccc(O)cc1)[C@@H](C)O)[C@@H](C)O)[C@@H](C)CC)C(=O)N[C@@H](C)C(=O)N[C@@H](CCC(N)=O)C(=O)NC(C)(C)C(=O)N[C@@H](CCCCNC(=O)COCCOCCNC(=O)COCCOCCNC(=O)CC[C@H](NC(=O)CCCCCCCCCCCCC(=O)O)C(=O)O)C(=O)N[C@@H](Cc1ccccc1)C(=O)N[C@H](C(=O)N[C@H](CCC(=O)O)C(=O)N[C@@](C)(Cc1ccc(O)cc1)C(=O)N[C@@H](CC(C)C)C(=O)N[C@H](C(=O)N[C@@H](CCC(=O)O)C(=O)NCC(=O)NCC(=O)N1CCC[C@H]1C(=O)N[C@@H](CO)C(=O)N[C@@H](CO)C(=O)NCC(=O)N[C@@H](C)C(=O)N1CCC[C@H]1C(=O)N1CCC[C@H]1C(=O)N1CCC[C@H]1C(=O)N[C@@H](CO)C(=O)N[C@@H](CCCCNC(=O)COCCOCCNC(=O)COCCOCCNC(=O)CC[C@H](NC(=O)CCCCCCCCCCCCC(=O)O)C(=O)O)C(N)=O)[C@@H](C)CC)[C@@H](C)CC [Example 254]?
Answer: EC50 (hGCGR; [1]): > 9950 nM; EC50 (hGCGR; cAMP, 37° C., 0.1% bovine casein (no human serum albumin), geometric mean, read-out: hGCGR EC50, nM (SEM, n)): > 9950 nM; Emax (hGIPR; [2]): 68.5%; Emax (hGIPR; HEK293, cAMP, 37° C., 0.1% bovine casein, arithmetic mean, read-out: hGIPR Emax, % ± SEM): 98.2%; Emax (hGLP-1R; [3]): 122%

Question: CCCC[C@H](NC(=O)[C@H](CC(=O)O)NC(=O)[C@H](CO)NC(=O)[C@@H](NC(=O)[C@](C)(Cc1ccccc1F)NC(=O)[C@@H](NC(=O)CNC(=O)[C@H](CCC(=O)O)NC(=O)C(C)(C)NC(=O)[C@@H](N)Cc1ccc(O)cc1)[C@@H](C)O)[C@@H](C)O)C(=O)N[C@@H](CO)C(=O)N[C@H](C(=O)N[C@@](C)(CC(C)C)C(=O)N[C@@H](CC(C)C)C(=O)N[C@@H](CC(=O)O)C(=O)N[C@@H](CCCN)C(=O)N[C@H](C(=O)N[C@@H](C)C(=O)N[C@@H](CCC(N)=O)C(=O)NC(C)(C)C(=O)N[C@@H](CCCCNC(=O)COCCOCCNC(=O)COCCOCCNC(=O)CC[C@H](NC(=O)CCCCCCCCCOc1ccc(C(=O)O)cc1)C(=O)O)C(=O)N[C@@H](Cc1ccccc1)C(=O)N[C@H](C(=O)N[C@H](CCC(=O)O)C(=O)N[C@@](C)(Cc1ccc(O)cc1)C(=O)N[C@@H](CC(C)C)C(=O)N[C@H](C(=O)N[C@@H](CCCCNC(=O)COCCOCCNC(=O)COCCOCCNC(=O)CC[C@H](NC(=O)CCCCCCCCCOc1ccc(C(=O)O)cc1)C(=O)O)C(=O)NCC(=O)NCC(=O)N1CCC[C@H]1C(=O)N[C@@H](CO)C(=O)N[C@@H](CO)C(=O)NCC(=O)N[C@@H](C)C(=O)N1CCC[C@H]1C(=O)N1CCC[C@H]1C(=O)N1CCC[C@H]1C(=O)N[C@@H](CO)C(N)=O)[C@@H](C)CC)[C@@H](C)CC)[C@@H](C)CC)[C@@H](C)CC [Example 333] was tested. Which EC50 (hGCGR; [4]) did it give?
Answer: > 9950 nM

Question: What about the EC50 (hGCGR; hGCGR EC50, nM (SEM, n), cAMP, 37° C., 0.1% bovine casein and 1.0% human serum albumin, geometric mean (SEM, n)) of the same compound?
Answer: > 9950 nM

Question: And the Emax (hGIPR; HEK293, read-out: hGIPR Emax, % ± SEM, cAMP, 37° C., 0.1% bovine casein and 1.0% human serum albumin)?
Answer: 100%

Question: And the Emax (hGIPR; HEK293, read-out: hGIPR Emax, % ± SEM, cAMP, 37° C., 0.1% bovine casein, arithmetic mean)?
Answer: 109%

Question: What about the EC50 (hGIPR; 37° C.) of the same compound?
Answer: 0.0062 nM

Question: What about the Emax (hGLP-1R; HEK293, read-out: hGLP-1R Emax, % ± SEM, cAMP, 37° C., 0.1% bovine casein and 1.0% human serum albumin, percent of maximal response to GLP-1(7-36)NH2) of the same compound?
Answer: 93.3%

Question: And the EC50 (hGLP-1R; [5])?
Answer: 0.388 nM

Question: How did the EC50 (hGCGR; hGCGR EC50, nM (SEM, n), 0.1% bovine casein and 1.0% human serum albumin, 37° C., geometric mean) turn out when CC[C@H](C)[C@H](NC(=O)[C@H](CC(C)C)NC(=O)[C@](C)(Cc1ccc(O)cc1)NC(=O)[C@@H](CCC(=O)O)NC(=O)[C@@H](NC(=O)[C@H](Cc1ccccc1)NC(=O)[C@H](CCCCNC(=O)COCCOCCNC(=O)COCCOCCNC(=O)CC[C@H](NC(=O)CCCCCCCCCOc1ccc(C(=O)O)cc1)C(=O)O)NC(=O)C(C)(C)NC(=O)[C@H](CCC(N)=O)NC(=O)[C@H](C)NC(=O)[C@H](CCCCNC(=O)COCCOCCNC(=O)COCCOCCNC(=O)CC[C@H](NC(=O)CCCCCCCCCOc1ccc(C(=O)O)cc1)C(=O)O)NC(=O)[C@H](CCCN)NC(=O)[C@H](CC(=O)O)NC(=O)[C@H](CC(C)C)NC(=O)[C@](C)(CC(C)C)NC(=O)[C@@H](NC(=O)[C@H](CO)NC(=O)[C@H](Cc1ccc(OC)cc1)NC(=O)[C@H](CC(=O)O)NC(=O)[C@H](CO)NC(=O)[C@@H](NC(=O)[C@](C)(Cc1ccccc1F)NC(=O)[C@@H](NC(=O)CNC(=O)[C@H](CCC(=O)O)NC(=O)C(C)(C)NC(=O)[C@@H](N)Cc1ccc(O)cc1)[C@@H](C)O)[C@@H](C)O)[C@@H](C)CC)[C@@H](C)CC)C(=O)N[C@@H](CCC(=O)O)C(=O)NCC(=O)NCC(=O)N1CCC[C@H]1C(=O)N[C@@H](CO)C(=O)N[C@@H](CO)C(=O)NCC(=O)N[C@@H](C)C(=O)N1CCC[C@H]1C(=O)N1CCC[C@H]1C(=O)N1CCC[C@H]1C(=O)N[C@@H](CO)C(N)=O [Example 277] (H-Y[Aib]EGT[αMePhe(2-F)]TSDY(Me)SI[αMeL]LD[Orn]K([AEEA-AEEA-γGlu-Decanoyl(10-(4-HOOC-PhO))])AQ[Aib]K([AEEA-AEEA-γGlu-Decanoyl(10-(4-HOOC-PhO))])FI[dE][αMeY]LIEGGPSSGAPPPS-NH2) was run?
Answer: > 9950 nM

Question: What about the EC50 (hGCGR; [4]) of the same compound?
Answer: > 9950 nM

Question: What about the EC50 (hGIPR; 37° C.) of the same compound?
Answer: 0.0176 nM

Question: And the Emax (hGLP-1R; HEK293, read-out: hGLP-1R Emax, % ± SEM, 0.1% bovine casein and 1.0% human serum albumin, 37° C., percent of maximal response to GLP-1(7-36)NH2)?
Answer: 93.1%

Question: And the Emax (hGLP-1R; HEK293, read-out: hGLP-1R Emax, % ± SEM, cAMP, 37° C., 0.1% bovine casein, percent of maximal response to GLP-1(7-36)NH2, arithmetic mean)?
Answer: 97.1%

Question: And the EC50 (hGLP-1R; [5])?
Answer: 0.225 nM
